The series can be described thus: Photochromic response of test square polymerizates on an optical bench. The settings on record: for ΔOD@ SATURATION: UV exposure continued for 20 minutes; for ΔOD@ SATURATION / ΔOD/MIN SENSITIVITY: test squares by method 1, 75°F (23.9°C); for ΔOD/MIN SENSITIVITY: measured over the first five (5) seconds of UV exposure, expressed on a per minute basis; for Bleach (T1/2): time for absorbance of the activated form to reach one half the highest absorbance at room temperature (75°F, 23.9°C) after removal of activating light, method 1; for LAMBDA MAX (VISIBLE): wavelength in the visible spectrum of maximum absorption of the activated (colored) form, diethylene glycol bis(allyl carbonate) composition. In kind it is physicochemical. As to the method: Testing was done with the photochromic naphthopyrans of the Examples incorporated or imbibed into test square polymerizates by one of two different methods. In Method I, the photochromic naphthopyrans of the Examples were incorporated into polymeric samples. The quantity of naphthopyran calculated to yield a 1.5 times 10^-3 molal solution was added to a flask containing 50 grams of a monomer blend of 4 parts ethoxylated bisphenol A dimethacrylate (BPA 2EO DMA), 1 part poly(ethyleneglycol) 600 dimethacrylate, and 0.033 weight percent 2,2'-azobis(2-methyl propionitrile) (AIBN). The naphthopyrans were dissolved into the monomer blend by stirring and gentle heating, if necessary. After a clear solution was obtained, it was poured into a flat sheet mold having the interior dimensions of 2.2 mm x 6 inches (15.24 cm) x 6 inches (15.24 cm). The mold was sealed and placed in a horizontal air flow, programmable oven set to increase the temperature from 40°C. to 95°C. over a 5 hour interval, hold the temperature at 95°C. for 3 hours and then lower it to 60°C. for at least 2 hours before the end of the curing cycle. After the molds were opened, the polymer sheets were cut using a diamond blade saw into 2 inch (5.1 centimeters) test squares.
In Method II, the photochromic naphthopyran was imbibed into test square polymerizates prepared from a diethylene glycol bis(allyl carbonate) composition. The test squares measured 1/8 inch (0.3 centimeters) x 2 inches (5.1 centimeters) x 2 inches (5.1 centimeters). In the imbibition process, the photochromic naphthopyran was dissolved to form a 10 weight percent solution in a 1:9 mixture of ethyl cellulose:toluene. The solution was then spin coated onto the test squares and allowed to dry. Samples were then heated in a hot-air oven at 135-155°C for a period of time sufficient to thermally transfer the photochromic into the test squares. […] After cooling, the ethyl cellulose/toluene resin film was removed from the test squares by washing with acetone.
The photochromic test squares were tested for photochromic response rates on an optical bench. Prior to testing on the optical bench, the photochromic test squares were exposed to 365 nanometer ultraviolet light for about 15 minutes to activate the photochromic compounds and then placed into a 76°C oven for about 15 minutes to bleach or inactivate the photochromic compounds. The test squares were then cooled to room temperature, exposed to fluorescent room lighting for at least 2 hours and then kept covered for at least 2 hours prior to testing on an optical bench maintained at 75°F (23.9°C). The bench was fitted with a 150 watt Xenon arc lamp, a remote controlled shutter, a copper sulfate bath acting as a heat sink for the arc lamp, a Schott WG-320 nm cut-off filter which removes short wavelength radiation; neutral density filter(s) and a sample holder in which the square to be tested was inserted. A collimated beam of light from a tungsten lamp was passed through the square at a small angle normal to the square. After passing through the square, the light from the tungsten lamp was directed through a photopic filter attached to a detector. The photopic filter passes wavelengths such that the detector mimics the response of the human eye. The output signals from the detector(s) were processed by a radiometer.
Change in optical density (ΔOD) was determined by inserting a test square in the bleached state into the sample holder, adjusting the transmittance scale to 100%, opening the shutter from the Xenon lamp to provide ultraviolet radiation to change the test square from the bleached state to an activated (i.e., darkened) state, measuring the transmittance in the activated state, and calculating the change in optical density according to the formula Δ OD=log(100/%Ta) where %Ta is the percent transmittance in the activated state and the logarithm is to the base 10. […]

As for `COC(=O)c1c2c(c3ccccc3c1O)OC(c1ccccc1)(c1ccc(N3CCOCC3)cc1)C=C2` (stereo not drawn) [Example 1, 2-(4-morpholinophenyl)-2-phenyl-5-methoxycarbonyl-6-hydroxy-2H-naphtho[1,2-b]pyran], the “ΔOD@ SATURATION” value turned out to be 1.36, the “ΔOD/MIN SENSITIVITY” value is on record as 0.64, the “Bleach (T1/2)” value was 3.22 min and the “LAMBDA MAX (VISIBLE)” value is reported as 511.
Consider `COC(=O)c1c2c(c3ccccc3c1OC)OC(c1ccccc1)(c1ccc(N3CCOCC3)cc1)C=C2` (stereo not drawn) [Example 2, 2-(4-morpholinophenyl)-2-phenyl-5-methoxycarbonyl-6-methoxy-2H-naphtho[1,2-b]pyran], for which the “ΔOD@ SATURATION” value stood at 0.95, the “ΔOD/MIN SENSITIVITY” value amounted to 0.29, the “Bleach (T1/2)” value stood at 4.87 min and the “LAMBDA MAX (VISIBLE)” value was 541.
In the case of `COC(=O)c1c2c(c3ccccc3c1OC(C)=O)OC(c1ccccc1)(c1ccc(N3CCOCC3)cc1)C=C2` (stereo not drawn) [Example 3, 2-(4-morpholinophenyl)-2-phenyl-5-methoxycarbonyl-6-acetoxy-2H-naphtho[1,2-b]pyran], the “ΔOD@ SATURATION” value is reported as 0.31, the “ΔOD/MIN SENSITIVITY” value is reported as 0.24, the “Bleach (T1/2)” value came to 1.47 min and the “LAMBDA MAX (VISIBLE)” value is recorded as 545.
Take `COC(=O)c1c2c(c3ccccc3c1OC(C)=O)OC(c1ccccc1)(c1ccc(N(C)C)cc1)C=C2` (stereo not drawn) [Example 4, 2-(4-dimethylaminophenyl)-2-phenyl-5-methoxycarbonyl-6-acetoxy-2H-naphtho[1,2-b]pyran]: the “ΔOD@ SATURATION” value was found to be 0.30, the “ΔOD/MIN SENSITIVITY” value was determined as 0.27, the “Bleach (T1/2)” value stood at 1.17 min and the “LAMBDA MAX (VISIBLE)” value is listed as 591.
Take `COC(=O)c1c2c(c3ccccc3c1C)OC(c1ccccc1)(c1ccc(N(C)C)cc1)C=C2` (stereo not drawn) [Example 5, 2-(4-dimethylaminophenyl)-2-phenyl-5-methoxycarbonyl-6-methyl-2H-naphtho[1,2-b]pyran]: the “ΔOD@ SATURATION” value came out at 0.51, the “ΔOD/MIN SENSITIVITY” value was found to be 0.20, the “Bleach (T1/2)” value was 3.33 min and the “LAMBDA MAX (VISIBLE)” value is reported as 584.
Take `COC(=O)c1c2c(c3ccccc3c1OC(C)=O)OC(c1ccc(N(C)C)cc1)(c1ccc(N(C)C)cc1)C=C2` [Example 6, 2,2-bis(4-dimethylaminophenyl)-5-methoxycarbonyl-6-acetoxy-2H-naphtho[1,2-b]pyran]: the “ΔOD@ SATURATION” value is 0.07, the “ΔOD/MIN SENSITIVITY” value is listed as 0.16, the “Bleach (T1/2)” value is 0.317 min and the “LAMBDA MAX (VISIBLE)” value is on record as 618.

The values are drawn from EP1000025B1, “SUBSTITUTED NAPHTHOPYRANS” (TRANSITIONS OPTICAL, INC., priority 1997, dated 1998).
